{
  "source": "patent US9394264B2",
  "about": "(Receptos, Inc., priority 2009, dated 2016)",
  "data": [
    {"target": "S1P1/EDG1 (Homo sapiens, UniProt P21453)", "sequence (P21453 whole entry)": "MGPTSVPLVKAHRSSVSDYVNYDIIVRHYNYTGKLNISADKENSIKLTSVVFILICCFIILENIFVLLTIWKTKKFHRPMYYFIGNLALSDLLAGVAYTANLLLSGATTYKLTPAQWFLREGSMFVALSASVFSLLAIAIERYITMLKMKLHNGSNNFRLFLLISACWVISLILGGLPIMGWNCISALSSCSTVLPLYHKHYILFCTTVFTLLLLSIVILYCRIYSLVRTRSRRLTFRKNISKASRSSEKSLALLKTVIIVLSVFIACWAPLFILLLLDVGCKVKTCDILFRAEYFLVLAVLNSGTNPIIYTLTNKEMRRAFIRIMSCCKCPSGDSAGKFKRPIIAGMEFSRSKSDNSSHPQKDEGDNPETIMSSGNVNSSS", "test": "S1P1 CRE-bla CHOK1 reporter assay (inhibition of Forskolin induced cAMP)", "format": "cell-based", "conditions": "agonist activity range, S1P1 CRE-bla CHOK1 cells, 2 μM Forskolin; read-out: S1P1 ACTIVITY", "description": "A mammalian expression plasmid containing S1P1/EDG1 cloned into pcDNA3.1 was purchased from Missouri S&T cDNA Resource Centre. The nucleotide and amino acid sequence of human S1P1/EDG1 are published in Hla and Maciag (J Biol Chem, 265(1990), 9308-9313). S1P1/pcDNA3.1 was transfected into the CRE-bla CHO K1 (Invitrogen) cell line, and stable single cell clones were selected using standard techniques. Expression of functional S1P1/EDG1 receptor was confirmed by cell surface FACS with a S1P1 antibody (R&D Systems, clone 218713) and S1P-mediated inhibition of Forskolin induced cAMP.\nCells were seeded into 384-well black wall/clear bottom plates at 10^4 cells/well/19.5 μl assay media (DMEM-phenol free, 0.5% charcoal/dextran stripped serum, 2 mM glutamine, 0.1 mM NEAA, 1 mM Na-Pyruvate, 25 mM Hepes) and incubated for 18 hrs at 37° C. in 5% CO2. Dose response curves (10-point) were generated in 10 mM Hepes, 0.1% Pluronic F127, in the presence of Forskolin. Cells were treated with 0.5 μl compound in the presence of 2 μM Forskolin for 4 hrs at 37° C. The FRET-based β-lactamase fluorescent substrate (LiveBLAzer™-FRET B/G Loading Kit CC4-AM; Invitrogen) was prepared according to manufacturer's directions, and incubated with cells for 2 hrs at room temperature. Plates were read at Ex:410/Em:458 and Ex:410/Em:522, and the response ratio determined. Data was analyzed by non-linear regression to determine the EC50 for inhibition of Forskolin induced cAMP.", "units": {"EC50": "pM"}, "values": [
      {"smiles": "CC(C)Oc1ccc(-c2nc(-c3cccc4c3CCC[C@H]4O)no2)cc1C#N", "note": "[Compound 1, (R)-5-(3-(5-hydroxy-5,6,7,8-tetrahydronaphthalen-1-yl)-1,2,4-oxadiazol-5-yl)-2-isopropoxybenzonitrile]", "EC50": "50 to 500"},
      {"smiles": "CC(C)Oc1ccc(-c2nc(-c3cccc4c3CCC[C@@H]4O)no2)cc1C#N", "note": "[Compound 2, (S)-5-(3-(5-hydroxy-5,6,7,8-tetrahydronaphthalen-1-yl)-1,2,4-oxadiazol-5-yl)-2-isopropoxybenzonitrile]", "EC50": "< 50"},
      {"smiles": "CC(C)Oc1ccc(-c2nc(-c3cccc4c3CCC[C@H]4N)no2)cc1C#N", "note": "[Compound 3, (R)-5-(3-(5-amino-5,6,7,8-tetrahydronaphthalen-1-yl)-1,2,4-oxadiazol-5-yl)-2-isopropoxybenzonitrile]", "EC50": "500 to 5000"},
      {"smiles": "CC(C)Oc1ccc(-c2nc(-c3cccc4c3CCC[C@@H]4N)no2)cc1C#N", "note": "[Compound 4, (S)-5-(3-(5-amino-5,6,7,8-tetrahydronaphthalen-1-yl)-1,2,4-oxadiazol-5-yl)-2-isopropoxybenzonitrile]", "EC50": "50 to 500"},
      {"smiles": "CC(C)Oc1ccc(-c2nc(-c3cccc4c3CCC[C@H]4NC(=O)N(C)C)no2)cc1C#N", "note": "[Compound 5]", "EC50": "50 to 500"},
      {"smiles": "CC(C)Oc1ccc(-c2nc(-c3cccc4c3CCC[C@@H]4NC(=O)N(C)C)no2)cc1C#N", "note": "[Compound 6]", "EC50": "50 to 500"},
      {"smiles": "CC(C)Oc1ccc(-c2nc(-c3cccc4c3CCC[C@H]4NC(=O)N3CC(O)C3)no2)cc1C#N", "note": "[Compound 7, (R)-N-(5-(5-(3-cyano-4-isopropoxyphenyl)-1,2,4-oxadiazol-3-yl)-1,2,3,4-tetrahydronaphthalen-1-yl)-3-hydroxyazetidine-1-carboxamide]", "EC50": "50 to 500"},
      {"smiles": "CC(C)Oc1ccc(-c2nc(-c3cccc4c3CCC[C@@H]4NC(=O)N3CC(C(=O)O)C3)no2)cc1C#N", "note": "[Compound 9]", "EC50": "50 to 500"},
      {"smiles": "CC(C)Oc1ccc(-c2nc(-c3cccc4c3CCC[C@H]4NC(=O)N3CC(C(=O)O)C3)no2)cc1C#N", "note": "[Compound 10]", "EC50": "50 to 500"},
      {"smiles": "CC(C)Oc1ccc(-c2nc(-c3cccc4c3CCC[C@H]4NC(=O)N3CCCC3)no2)cc1C#N", "note": "[Compound 11]", "EC50": "50 to 500"},
      {"smiles": "CC(C)Oc1ccc(-c2nc(-c3cccc4c3CCC[C@@H]4NC(=O)N3CCCC3)no2)cc1C#N", "note": "[Compound 12, (S)-N-(5-(5-(3-cyano-4-isopropoxyphenyl)-1,2,4-oxadiazol-3-yl)-1,2,3,4-tetrahydronaphthalen-1-yl)pyrrolidine-1-carboxamide]", "EC50": "50 to 500"},
      {"smiles": "CC(C)Oc1ccc(-c2nc(-c3cccc4c3CCC[C@@H]4NC(=O)N3CC[C@H](O)C3)no2)cc1C#N", "note": "[Compound 14]", "EC50": "50 to 500"},
      {"smiles": "CC(C)Oc1ccc(-c2nc(-c3cccc4c3CCC[C@@H]4NC(=O)N3CCOCC3)no2)cc1C#N", "note": "[Compound 15, (S)-N-(5-(5-(3-cyano-4-isopropoxyphenyl)-1,2,4-oxadiazol-3-yl)-1,2,3,4-tetrahydronaphthalen-1-yl)morpholine-4-carboxamide]", "EC50": "50 to 500"},
      {"smiles": "CC(C)Oc1ccc(-c2nc(-c3cccc4c3CCC[C@H]4NC(=O)N3CCOCC3)no2)cc1C#N", "note": "[Compound 16]", "EC50": "500 to 5000"},
      {"smiles": "CC(C)Oc1ccc(-c2nc(-c3cccc4c3CCC[C@@H]4NC(=O)N3CCC[C@H](O)C3)no2)cc1C#N", "note": "[Compound 17]", "EC50": "500 to 5000"},
      {"smiles": "CC(C)Oc1ccc(-c2nc(-c3cccc4c3CCC[C@H]4NC(=O)N3CCC[C@H](O)C3)no2)cc1C#N", "note": "[Compound 18]", "EC50": "500 to 5000"},
      {"smiles": "CC(C)Oc1ccc(-c2nc(-c3cccc4c3CCC[C@H]4NC(=O)N3CCC(O)CC3)no2)cc1C#N", "note": "[Compound 19]", "EC50": "500 to 5000"},
      {"smiles": "CC(C)Oc1ccc(-c2nc(-c3cccc4c3CCC[C@H]4NC(=O)N3CC[C@@H](N(C)C)C3)no2)cc1C#N", "note": "[Compound 20, (R)-N-((R)-5-(5-(3-cyano-4-isopropoxyphenyl)-1,2,4-oxadiazol-3-yl)-1,2,3,4-tetrahydronaphthalen-1-yl)-3-(dimethylamino)pyrrolidine-1-carboxamide]", "EC50": "500 to 5000"}
    ]}
  ]
}
